Measured values as given in paper PMC10813298, “Evidence of Guanidines Potential against Leishmania (Viannia) braziliensis: Exploring In Vitro Effectiveness, Toxicities and of Innate Immunity Response Effects” (Biomolecules, 2023).

Key:
[1] = system: A549; assay: Cell toxicity, MTT-based EZ4U assay, A549; parameters: species or system human; conditions: A549, 1.56–500 µmol/L
Experimental: (§1) In this study, we utilized the RAW 264.7 macrophages line (obtained from ATCC: code TIB-71™),human embryonic kidney cell line HEK-293 (obtained from ATCC: code CRL-1573™)and two human cancer cell cultures: the colon carcinoma cell line CaCo-2 and the adenocarcinomic human alveolar basal epithelial cell A549 (also obtained from ATCC: codesHTB-37™ and CCL-185™).These cell lines were cultured in Dulbecco’s modified Eagle medium (DMEM) from Gibco by Life Technologies (LifeTech Austria, Vienna, Austria). The growth medium was supplemented with 5% fetal bovine serum (FBS) from Gibco by Life Technologies and 1% penicillin-streptomycin obtained from Sigma-Aldrich (Vienna, Austria). The cells were maintained at 37 °C with 5% CO2 in a humidified incubator, and regular checks for mycoplasma contamination were carried out.
(§2) For experimental purposes, the cells were seeded into 96-well plates at a density of 2 × 10^4 cells/mL, with each well containing 100 µL of the cell suspension. The cells were allowed to adhere for 24 h. […] The stock solutions of these compounds were prepared in water with 10% (v/v) dimethyl sulfoxide (DMSO) and stored at 4 °C.
(§3) To assess cell viability after 72 h of exposure to the compounds, we employed a 3-(4,5-dimethylthiazol-2-yl)-2,5-diphenyltetrazolium bromide (MTT)-based vitality assay kit (EZ4U, Biomedica, Vienna, Austria). Briefly, we added 20 µL of the EZ4U assay solution to each well and incubated the plates in the dark for 2 h. Subsequently, we measured the absorbance using a microplate reader at 450 nm, with 620 nm as a reference to reduce unspecific background values. For reliability, all experiments were conducted three times with triplicate samples.

[2] = Cell toxicity, MTT-based EZ4U assay, A549; parameters: species or system human; conditions: human, A549 cells (alveolar basal epithelial adenocarcinoma), 72 h; for viability at 72 h, 2.34 µmol/L: A549, 2.34 µmol/L; for viability at 72 h, 4.6875 µmol/L: A549, 4.6875 µmol/L; for viability at 72 h, 9.375 µmol/L: A549, 9.375 µmol/L; for viability at 72 h, 18.75 µmol/L: A549, 18.75 µmol/L; for viability at 72 h, 37.5 µmol/L: A549, 37.5 µmol/L; for viability at 72 h, 75 µmol/L: A549, 75 µmol/L; for viability at 72 h, 150 µmol/L: A549, 150 µmol/L; for viability at 72 h, 300 µmol/L: A549, 300 µmol/L; for viability at 72 h, 600 µmol/L: A549, 600 µmol/L
Experimental: as §1, §2, §3

[3] = Cell toxicity, MTT-based EZ4U assay, CaCo-2; conditions: human, CaCo-2 cells (colon carcinoma); for viability at 72 h, 2.34 µmol/L: CACO2, 2.34 µmol/L; for viability at 72 h, 4.6875 µmol/L: CACO2, 4.6875 µmol/L; for viability at 72 h, 9.375 µmol/L: CACO2, 9.375 µmol/L; for viability at 72 h, 18.75 µmol/L: CACO2, 18.75 µmol/L; for viability at 72 h, 37.5 µmol/L: CACO2, 37.5 µmol/L; for viability at 72 h, 75 µmol/L: CACO2, 75 µmol/L; for viability at 72 h, 150 µmol/L: CACO2, 150 µmol/L; for viability at 72 h, 300 µmol/L: CACO2, 300 µmol/L; for viability at 72 h, 600 µmol/L: CACO2, 600 µmol/L
Experimental: as §1
For experimental purposes, the cells were seeded into 96-well plates at a density of 2 × 10^4 cells/mL, with each well containing 100 µL of the cell suspension. The cells were allowed to adhere for 24 h. Subsequently, they were exposed to 100 µL of the test compounds, which were diluted in DMEM, with concentrations ranging from 2 to 600 µmol/L. The stock solutions of these compounds were prepared in water with 10% (v/v) dimethyl sulfoxide (DMSO) and stored at 4 °C.
as §3

[4] = system: HEK-293; assay: Cell toxicity, MTT-based EZ4U assay, HEK-293; parameters: species or system human; conditions: HEK-293, 1.56–500 µmol/L
Experimental: as §1, §2, §3

[5] = Cell toxicity, MTT-based EZ4U assay, HEK-293; parameters: species or system human; conditions: human, HEK-293 cells (embryonic kidney), HEK, 72 h
Experimental: as §1, §2, §3

[6] = system: L. (V.) braziliensis intramacrophage amastigotes; assay: Treatment of RAW 264.7 macrophages infected with L. (V.) braziliensis (intramacrophage amastigotes); type: cell-based, Leishmania (Viannia) braziliensis; conditions: RAW 264.7 infected with L. (V.) braziliensis, 72 h of treatment
Experimental: RAW 264.7 macrophages (1 × 10^6 cells/mL) were seeded in 24-well plates containing sterile glass slides, and approximately 500 μL of supplemented DMEM medium was added. The plates were then incubated at 37 °C with 5% CO2 for 4 h to facilitate cell adhesion. Following the adhesion period, promastigotes (1 × 10^7) in the stationary growth phase were introduced into the wells for infection. The plates were then incubated for an additional 4 h to allow infection to take place. Afterward, the medium was carefully removed, and the wells were washed three times with PBS to eliminate any nonadherent cells. Fresh medium containing serial concentrations of the test substances, ranging from 0.78 to 25 μmol/L, was added to the wells. Additionally, a range of concentrations of glucantime (25 to 800 μmol/L) was included for comparison. The treatment was carried out for 72 h in an incubator at 37 °C with 5% CO2. At the end of the 72 h treatment period, the glass lamina was removed from each well and stained using rapid panoptic stain (Laborklin®, Curitiba, Paraná, Brazil). The stained samples were mounted on permanent slides using Entelan® (Sigma-Aldrich, St. Louis, MO, USA), and antileishmanial activity was assessed by measuring the infection rate and counting the number of amastigotes per macrophage. Quantification was performed using light microscopy at a magnification of 1000×, and a total of 300 macrophages per lamina were evaluated. As a negative control, half DMEM containing 0.2% DMSO was used.

[7] = Leishmania braziliensis, RAW264.7, 72 h

With `O=C(/N=C(/NCc1ccccc1)Nc1ccc([N+](=O)[O-])cc1)c1ccccc1` [LQOF-G1, (Z)-N-benzoyl-N-benzyl-N-(4-nitrophenyl)guanidine] the “toxic effects on cell viability” value [1] was “No toxic effects”, the viability at 72 h, 2.34 µmol/L [2] was 114 ± 7% and the viability at 72 h, 4.6875 µmol/L [2] was 97 ± 10.7%. The viability at 72 h, 9.375 µmol/L [2] was 103 ± 8.8%, the viability at 72 h, 18.75 µmol/L [2] was 103 ± 5.7% and the viability at 72 h, 37.5 µmol/L [2] was 101 ± 8.3%. It also gave a viability at 72 h, 75 µmol/L [2] of 92 ± 9.3%, a viability at 72 h, 150 µmol/L [2] of 100 ± 6.5% and a viability at 72 h, 300 µmol/L [2] of 110 ± 7.2%. The viability at 72 h, 600 µmol/L [2] was 90 ± 8.3%, the viability at 72 h, 2.34 µmol/L [3] was 106 ± 8% and the viability at 72 h, 4.6875 µmol/L [3] was 109 ± 5%. The viability at 72 h, 9.375 µmol/L [3] was 109 ± 7%, the viability at 72 h, 18.75 µmol/L [3] was 109 ± 10% and the viability at 72 h, 37.5 µmol/L [3] was 97 ± 13%. It also gave a viability at 72 h, 75 µmol/L [3] of 99 ± 7%, a viability at 72 h, 150 µmol/L [3] of 107 ± 3% and a viability at 72 h, 300 µmol/L [3] of 103 ± 10%. The viability at 72 h, 600 µmol/L [3] was 119 ± 5%, the “toxic effects on cell viability” value [4] was “No toxic effects” and the viability at 72 h, 2.34 µmol/L [5] was 99 ± 10%. For the same compound, the viability at 72 h, 4.6875 µmol/L [5] was 104 ± 11%, the viability at 72 h, 9.375 µmol/L [5] was 125 ± 8.1% and the viability at 72 h, 18.75 µmol/L [5] was 125 ± 9.4%. The viability at 72 h, 37.5 µmol/L [5] was 100 ± 11%, the viability at 72 h, 75 µmol/L [5] was 115 ± 7% and the viability at 72 h, 150 µmol/L [5] was 111 ± 5%. For the same compound, the viability at 72 h, 300 µmol/L [5] was 117 ± 6%, the viability at 72 h, 600 µmol/L [5] was 115 ± 10% and the EC50 [6, 7] was 3.65 µM. It also gave an EC50 [6] of 3.6 ± 0.2 µM.
With `O=C(/N=C(/NCc1ccccc1)Nc1ccc(Br)cc1)c1ccccc1` [LQOF-G2, (Z)-N-benzoyl-N-benzyl-N-(4-bromophenyl)guanidine] the “toxic effects on cell viability” value [1] was “No toxic effects”, the viability at 72 h, 2.34 µmol/L [2] was 106 ± 6.3% and the viability at 72 h, 4.6875 µmol/L [2] was 109 ± 5.5%. For the same compound, the viability at 72 h, 9.375 µmol/L [2] was 102 ± 10.5%, the viability at 72 h, 18.75 µmol/L [2] was 89 ± 5.7% and the viability at 72 h, 37.5 µmol/L [2] was 99 ± 5.2%. The viability at 72 h, 75 µmol/L [2] was 96 ± 7.7%, the viability at 72 h, 150 µmol/L [2] was 109 ± 4.3% and the viability at 72 h, 300 µmol/L [2] was 111 ± 9.3%. It also gave a viability at 72 h, 600 µmol/L [2] of 110 ± 7.9%, a viability at 72 h, 2.34 µmol/L [3] of 106 ± 3.6% and a viability at 72 h, 4.6875 µmol/L [3] of 109 ± 13.6%. It also gave a viability at 72 h, 9.375 µmol/L [3] of 109 ± 14.7%, a viability at 72 h, 18.75 µmol/L [3] of 103 ± 5.7% and a viability at 72 h, 37.5 µmol/L [3] of 97 ± 4.9%. It also gave a viability at 72 h, 75 µmol/L [3] of 99 ± 6.4%, a viability at 72 h, 150 µmol/L [3] of 107 ± 5.3% and a viability at 72 h, 300 µmol/L [3] of 103 ± 6.6%. For the same compound, the viability at 72 h, 600 µmol/L [3] was 119 ± 8.8%, the “toxic effects on cell viability” value [4] was “No toxic effects” and the viability at 72 h, 2.34 µmol/L [5] was 104 ± 2.9%. It also gave a viability at 72 h, 4.6875 µmol/L [5] of 109 ± 9.6%, a viability at 72 h, 9.375 µmol/L [5] of 103 ± 13.5% and a viability at 72 h, 18.75 µmol/L [5] of 108 ± 8.6%. For the same compound, the viability at 72 h, 37.5 µmol/L [5] was 96 ± 2.9%, the viability at 72 h, 75 µmol/L [5] was 99 ± 8.5% and the viability at 72 h, 150 µmol/L [5] was 145 ± 3.3%. For the same compound, the viability at 72 h, 300 µmol/L [5] was 123 ± 7.1%, the viability at 72 h, 600 µmol/L [5] was 133 ± 8.4% and the EC50 [6, 7] was 4.21 µM. The EC50 [6] was 4.2 ± 0.5 µM.
`CC(C)(C)c1ccc(N/C(=N\C(=O)c2ccccc2)NCc2ccccc2)cc1` [LQOF-G6, (Z)-N-benzoyl-N-benzyl-N-(4-tert-butylphenyl)guanidine] gave an EC50 [6, 7] of 3.89 µM and an EC50 [6] of 3.9 ± 0.1 µM.
Work on `O=C(/N=C(/NCc1ccccc1)Nc1ccc(I)cc1)c1ccccc1` [LQOF-G7, (Z)-N-benzoyl-N-benzyl-N-(4-iodophenyl)guanidine] yielded an EC50 [6, 7] of 8.25 µM and an EC50 [6] of 8.2 ± 0.7 µM.
In the case of `O=C(/N=C(/NCc1ccc(Cl)cc1Cl)Nc1ccc(Br)cc1)c1ccccc1` [LQOF-G32, (Z)-N-benzoyl-N-(2,4-di-chlorobenzyl)-N-(4-bromophenyl)guanidine], the “toxic effects on cell viability” value [1] is reported as “No toxic effects”, the viability at 72 h, 2.34 µmol/L [2] is reported as 109 ± 9.7% and the viability at 72 h, 4.6875 µmol/L [2] is reported as 157 ± 10.6%. For the same compound, the viability at 72 h, 9.375 µmol/L [2] was 165 ± 8.1%, the viability at 72 h, 18.75 µmol/L [2] was 121 ± 3.6% and the viability at 72 h, 37.5 µmol/L [2] was 118 ± 9.9%. For the same compound, the viability at 72 h, 75 µmol/L [2] was 115 ± 17.5%, the viability at 72 h, 150 µmol/L [2] was 111 ± 15.5% and the viability at 72 h, 300 µmol/L [2] was 106 ± 13.8%. It also gave a viability at 72 h, 600 µmol/L [2] of 95 ± 10.4%, a viability at 72 h, 2.34 µmol/L [3] of 138 ± 8.4% and a viability at 72 h, 4.6875 µmol/L [3] of 123 ± 11.4%. It also gave a viability at 72 h, 9.375 µmol/L [3] of 117 ± 7.3%, a viability at 72 h, 18.75 µmol/L [3] of 116 ± 9.7% and a viability at 72 h, 37.5 µmol/L [3] of 79 ± 6.4%. The viability at 72 h, 75 µmol/L [3] was 53 ± 14.8%, the viability at 72 h, 150 µmol/L [3] was 45 ± 10.4% and the viability at 72 h, 300 µmol/L [3] was 45 ± 15.9%. The viability at 72 h, 600 µmol/L [3] was 66 ± 12.3%, the “toxic effects on cell viability” value [4] was “No toxic effects” and the viability at 72 h, 2.34 µmol/L [5] was 93 ± 5.3%. For the same compound, the viability at 72 h, 4.6875 µmol/L [5] was 95 ± 12.7%, the viability at 72 h, 9.375 µmol/L [5] was 89 ± 7.9% and the viability at 72 h, 18.75 µmol/L [5] was 94 ± 8.9%. It also gave a viability at 72 h, 37.5 µmol/L [5] of 91 ± 6.9%, a viability at 72 h, 75 µmol/L [5] of 91 ± 13.9% and a viability at 72 h, 150 µmol/L [5] of 94 ± 12.7%. It also gave a viability at 72 h, 300 µmol/L [5] of 118 ± 13.9% and a viability at 72 h, 600 µmol/L [5] of 185 ± 10.1%.
